Assay results taken from PubChem BioAssay AID179 (DTP/NCI, 2004).
Active and inactive are the calls of the source.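 The calls were made as follows: active = compounds giving half or more protection of infected cells from virus-caused growth loss, again on retest; inactive = the rest.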 Where a SMILES comes first, the peptide text is derived from it. The star is where a group is joined. Cbz = O=C(OCc1ccccc1)*; NHNH2 = NN*

Tested on: CEM cells HIV-1 protection, formazan growth assay
Test: NCI AIDS Antiviral Assay
Conditions: for IC50: measured here: growth of uninfected CEM cells
In short: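 Human CEM cells, uninfected and HIV-1-infected, received five drug concentrations, and growth was read by soluble formazan assay. Compounds giving at least 50% protection were retested; reproducible 100% protection defined confirmed active.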

SMILES	EC50 [µM]	IC50 [µM]	outcome
COC(=O)C1(CCC(=O)N(C)c2ccccc2)NNC2C(=O)N(c3ccccc3)C(=O)C21 (stereo not given)	> 200	> 200	–
C=[N+](CNC(=O)CNC(=O)C(Cc1ccc([N+](=O)[O-])cc1)NC(=O)OC(C)(C)C)C(=O)CNC(=O)C(Cc1ccc([N+](=O)[O-])cc1)NC(=O)OC(C)(C)C (stereo not given)	> 200	89.1	–
N#Cc1c(N)nc2c(N=Nc3ccccc3)c(N)nn2c1Nc1ccccc1	> 200	9.55	–
Cc1nc(C)c(N2CCN(C(=O)O)CC2)c(=O)[nH]1	> 200	> 200	–
Cc1ccc(Nc2cccc3c2C(=O)c2cccc(Nc4ccc(C)cc4S(=O)(=O)O)c2C3=O)c(S(=O)(=O)O)c1	–	–	active
C=C=C(CC)C(C(=O)OC)N(CC)CC (stereo not given)	–	–	inactive
CSc1ccc(N2C(=O)C3c4[nH]c5ccccc5c4C4CCC(C(C)(C)C)CC4C3C2=O)cc1 (stereo not given)	> 2.19	> 2.19	–
O=C(Cc1ccccc1)NNc1nc(NNC(=O)c2ccncc2)nc(Nc2ccc(Cl)cc2)n1	> 100	> 100	–
COC(=O)CCNC(=O)OCc1ccccc1	> 200	> 200	–
O=c1c2c3c(sc2nc2n1N=CN(c1ccc(Cl)cc1)C2)CCCC3	> 200	38	–
N#Cc1c2c(cn3c1nc1ccccc13)Cc1ccccc1-2	> 200	> 200	–
CCOc1ccc(N=Cc2cccc3cccnc23)cc1	–	–	inactive
Cn1c(=O)c2[nH]c(NN)nc2n(C)c1=O	> 200	105	–
COc1cc(Br)cc2nc(-c3cccs3)oc12	> 200	141	–
O=C1c2ccccc2C(=O)c2sc(Nc3cc(Cl)ccc3Cl)nc21	> 200	10.5	–
O=C(O)c1cc2cc3c(cc2c2ccccc12)OCO3	> 490	282	–
N#Cc1c(N2CCCC2)nsc1Nc1ccc(F)cc1	> 200	> 200	–
CCOC(=O)CCC(=O)C1c2cccc(O)c2C(=O)c2c(O)cccc21	> 28.2	4.9	–
O=C1CCSC(=O)N1c1ccccc1	> 200	> 200	–
CC(=O)CCCCCCCCCCCC[C@@H]1CC[C@H](C)[C@H](O)N1	> 21.9	> 21.9	–
Cc1cc(S(=O)(=O)Nc2nnc3c4ccccc4cnn23)c(S)cc1Cl	56.2	1170	–

SMILES	EC50 [µM]	IC50 [µM]	outcome
CC(C)(C)C1=CC(=C(P(=O)(O)O)P(=O)(O)O)C=C(C(C)(C)C)C1=O	> 537	> 537	–
CCc1c(-c2coc(CC/C(C)=C/c3ccccc3)n2)oc(OC)c(C)c1=O	> 9.55	0.251	–
Cc1nnc(SCC2=C(C(=O)O)N3C(=O)C(NC(=O)Cn4cc(Cl)c(=O)c(Cl)c4)C3SC2)s1 (stereo not given)	> 200	> 200	–
COc1cccc(NC(=O)CC(=O)NN)c1	> 200	> 200	–
CC1(C)c2ccccc2N2O[C@@H]3C(=O)N(c4ccccc4)C(=O)[C@@H]3C21c1ccccc1 (stereo not given in full)	> 36.3	> 36.3	–
CNS(=O)(=O)NN(C)S(=O)(=O)c1ccc2ccccc2c1	> 759	110	–
C/C(=N/NC(=O)C[n+]1ccccc1)C(CN(CC(C)C)CC(C)C)C(=O)Nc1ccc(C)cc1C (stereo not given)	> 14.1	> 14.1	–
O=c1[nH]cnc2c(NC3OC(CO)C(O)C3O)cccc12 (stereo not given)	–	–	inactive
Cn1[nH]c(=O)ccc1=O	> 2000	1780	–
S=c1n(-c2ccc(Cl)cc2)c2nc3ccccc3nc(/c2=N\Nc2ccc(Br)cc2)n1-c1ccccn1	> 32.4	30.9	–
Cc1cc(=O)[nH]c2[nH][nH]c(=O)c12	–	–	inactive
CCOC(=O)N[C@H]1CCc2cc(OC)c(OC)c(OC)c2-c2ccc(SC)c(=O)cc21	> 0.2	0.00123	–
COc1ccc2c(c1)-c1c(c3ccccc3n1CCN1CCOCC1)CC2	–	–	inactive
CC(=O)OCC(C)C1=C(OC(C)=O)C(=O)C2(C)C/C=C(/C)CC/C=C(\C)CCC(OC(C)=O)C(C)CCC12 (stereo not given)	> 200	14.5	–
CCOC(=O)/C(=C/c1ccccn1)C(=O)c1ccccc1	> 240	12.6	–
Cc1cc2nn(C3CCCO3)nc2cc1C (stereo not given)	> 200	> 200	–
N#C/C(c1nc2ccccc2[nH]1)=c1\s/c(=C(/N)O)c(=N)n1-c1ccccc1	> 13.8	> 13.8	–
O=C(CC1(O)C(=O)Nc2c(Cl)cc(Cl)cc21)c1ccc([N+](=O)[O-])cc1 (stereo not given)	> 178	93.3	–
CCC[CH2][Sn]([CH2]CCC)([O]N(C)C(=O)c1ccc(Br)cc1)[O]N(C)C(=O)c1ccc(Br)cc1	> 10.5	1.78	–
O=C(CCl)N1CCN(C(c2ccccc2)c2ccccc2)CC1	> 79.4	3.72	–
CNC(=O)C(C)NC(=O)C(Cc1ccccc1)NC(=O)OC(C)(C)C (stereo not given)	> 200	> 200	–

SMILES	EC50 [µM]	IC50 [µM]	outcome
CCOC(=O)C1=CC(C)(C(=O)OCC)Nc2c(nc(OC)n(C)c2=O)N1 (stereo not given)	> 200	> 200	–
CC(=O)C(=Cc1ccc([N+](=O)[O-])cc1)C(C)=O	> 155	27.5	–
Cc1c(C(=O)C/C(=N/NC(=O)CC#N)C(N)=O)[n+](=O)c2ccccc2n1[O-]	> 26.9	> 26.9	–
CC12CCC3CCCCC3(OO1)[C@@H](OCc1ccccc1)O2 (stereo not given in full)	> 29.5	> 29.5	–
COc1ccccc1C(=O)c1c(N2CCCCC2)c(=O)c1=O	182	> 200	–
CCCCN(CCCC)CC1CC(C(C)(C)C)CCC1O (stereo not given)	> 200	19.5	–
COc1ccc(C(=O)Cn2c(C(C)=O)nc3ccccc32)cc1	> 200	2.45	–
NC(CCOCCP(=O)(O)CCC1C=CC=CC1)C(=O)O (stereo not given)	> 200	> 200	–
N#CC1=C(O)NC(O)=C(C#N)C1c1ccc(C2C(C#N)=C(O)NC(O)=C2C#N)cc1	> 631	35.5	–
CC1=C(O)C(=O)C2C(=O)C1C(C)C2c1ccc(C)cc1 (stereo not given)	> 251	> 251	–
O=C(Cc1ccccc1)Nc1ccccc1Cl	> 204	> 204	–
Cc1cc(C)c2nc3c(c(C(O)C4CCCCN4)c2c1)CC/C3=C\c1ccc(Cl)cc1 (stereo not given)	> 22.9	> 22.9	–
NC(=S)N/N=C/c1cc(CN2CCOCC2)c(N)cn1	> 200	10.5	–
COc1cc(OC)cc(Oc2nc3cc(F)c(F)cc3nc2-c2ccccc2)c1	> 200	> 200	–
C[CH2][Sn]([CH2]C)([O]C(=O)c1ccc(F)cc1)[O]C(=O)c1ccc(F)cc1	> 110	3.63	–
C[C@@H]([C@H]1CC[C@@]2(C)[C@@H]3CC[C@@H]4C(=CC3=CC[C@]12C)CC[C@H](N(C)C)C4(C)C)N(C)C	> 200	> 200	–
O=C1NNC(=O)c2ccccc2SSc2ccccc2C(=O)NNC(=O)c2ccccc2SSc2ccccc21	5.01	25.1	–
COC(=O)C1C/C(=C/N(C)C)C(=S)N1 (stereo not given)	> 200	> 200	–
C=CCOC(=O)Cn1ccc(=O)[nH]c1=O	> 200	> 200	–
CC(C)C(NC(=O)C1CCCN1C(=O)OCc1ccccc1)C(=O)NN (stereo not drawn) (Cbz-Pro-Val-NHNH2; configuration not given here)	> 692	407	–
O=C(O)CSC(=S)N1CCCC1	> 200	102	–
